Source: publication PMC5448077, “Development of an orally available inhibitor of CLK1 for skipping a mutated dystrophin exon in Duchenne muscular dystrophy” (Scientific Reports, 2017)

Columns and labels:
Assay in all cases: biochemical
ABL(E255K) = target: T1, ABL(E255K) (Homo sapiens, UniProt P00519, E255K)
T1 construct: gene ABL1
How it was run: (§1)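 Human kinases phosphorylating kinase-specific synthetic peptides, assayed by mobility shift (MSA) or IMAP fluorescence polarization, in 20 mM HEPES pH 7.5, 0.01% Triton X-100, 2 mM DTT with substrate/ATP-metal. Reactions ran 1 or 5 h at room temperature; activity = P/(P + S) from product and substrate peak heights.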

ALK(C1156Y) = ALK(C1156Y) (Homo sapiens, UniProt Q9UM73, C1156Y)
How it was run: as §1

CDK9/CycT1 = CDK9/CycT1 (Homo sapiens, UniProt P50750)
How it was run: as §1

CLK3 = CLK3 (Homo sapiens, UniProt P49761)
How it was run: as §1

DDR2 = DDR2 (Homo sapiens, UniProt Q16832)
How it was run: as §1

DYRK1B = DYRK1B (Homo sapiens, UniProt Q9Y463)
DYRK1B, sequence (Q9Y463 whole entry): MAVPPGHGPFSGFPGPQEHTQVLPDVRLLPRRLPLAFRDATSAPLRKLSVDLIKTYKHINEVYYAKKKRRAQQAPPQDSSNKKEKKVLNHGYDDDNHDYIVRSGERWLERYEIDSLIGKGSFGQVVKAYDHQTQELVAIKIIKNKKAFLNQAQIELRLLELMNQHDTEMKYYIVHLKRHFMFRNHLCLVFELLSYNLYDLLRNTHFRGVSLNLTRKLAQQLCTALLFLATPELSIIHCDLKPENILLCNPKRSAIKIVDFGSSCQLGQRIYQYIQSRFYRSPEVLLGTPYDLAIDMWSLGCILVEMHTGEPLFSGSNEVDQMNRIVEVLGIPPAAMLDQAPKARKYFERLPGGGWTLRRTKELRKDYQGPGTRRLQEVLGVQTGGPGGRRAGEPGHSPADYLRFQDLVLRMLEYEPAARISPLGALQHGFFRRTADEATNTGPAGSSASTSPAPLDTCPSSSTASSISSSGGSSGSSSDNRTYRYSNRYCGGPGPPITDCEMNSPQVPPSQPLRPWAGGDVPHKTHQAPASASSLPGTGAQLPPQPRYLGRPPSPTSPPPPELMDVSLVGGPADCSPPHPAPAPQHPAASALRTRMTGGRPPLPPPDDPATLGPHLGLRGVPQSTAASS
How it was run: as §1

EPHA1 = EPHA1 (Homo sapiens, UniProt P21709)
How it was run: as §1

FGFR4 = FGFR4 (Homo sapiens, UniProt P22455)
How it was run: as §1

FGR = FGR (Homo sapiens, UniProt P09769)
How it was run: as §1

FRK = FRK (Homo sapiens, UniProt P42685)
FRK, sequence (P42685 whole entry): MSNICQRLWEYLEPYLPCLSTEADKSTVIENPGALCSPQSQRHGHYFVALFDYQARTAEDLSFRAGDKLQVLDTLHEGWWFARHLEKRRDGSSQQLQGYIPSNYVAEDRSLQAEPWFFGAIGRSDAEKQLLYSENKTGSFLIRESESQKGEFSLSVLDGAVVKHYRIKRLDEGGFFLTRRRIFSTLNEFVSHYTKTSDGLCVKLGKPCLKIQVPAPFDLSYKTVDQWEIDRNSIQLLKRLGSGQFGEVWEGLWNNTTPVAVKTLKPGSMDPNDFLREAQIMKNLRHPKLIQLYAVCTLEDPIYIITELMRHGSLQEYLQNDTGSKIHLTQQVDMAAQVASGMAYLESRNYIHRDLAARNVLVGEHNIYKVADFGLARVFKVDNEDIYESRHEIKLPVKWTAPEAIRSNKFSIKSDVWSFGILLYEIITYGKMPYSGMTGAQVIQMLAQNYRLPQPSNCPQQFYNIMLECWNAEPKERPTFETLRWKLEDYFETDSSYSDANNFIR
How it was run: as §1

FYN(isoform b) = target: T2, FYN(isoform b) (Homo sapiens, UniProt P06241)
T2 construct: isoform b
T2 sequence (P06241 whole entry, canonical isoform): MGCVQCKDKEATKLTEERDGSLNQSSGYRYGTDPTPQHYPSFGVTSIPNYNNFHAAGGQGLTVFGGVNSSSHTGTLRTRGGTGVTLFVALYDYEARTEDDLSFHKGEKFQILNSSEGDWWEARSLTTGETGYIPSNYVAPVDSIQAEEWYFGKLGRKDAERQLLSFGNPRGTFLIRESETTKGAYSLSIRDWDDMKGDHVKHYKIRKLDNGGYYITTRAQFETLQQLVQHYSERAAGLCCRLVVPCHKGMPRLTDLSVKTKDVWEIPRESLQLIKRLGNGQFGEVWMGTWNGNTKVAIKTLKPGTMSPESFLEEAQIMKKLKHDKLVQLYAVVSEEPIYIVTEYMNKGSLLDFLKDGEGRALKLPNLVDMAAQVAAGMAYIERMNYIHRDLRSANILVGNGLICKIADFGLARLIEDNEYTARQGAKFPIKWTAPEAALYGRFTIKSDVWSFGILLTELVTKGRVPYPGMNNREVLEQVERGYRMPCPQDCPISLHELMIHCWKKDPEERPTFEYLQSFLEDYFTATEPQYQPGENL
How it was run: as §1

HER2 = target: T3, HER2 (Homo sapiens, UniProt P04626)
T3 construct: gene ERBB2
How it was run: as §1

JNK2 = target: T4, JNK2 (Homo sapiens, UniProt P45984)
T4 construct: gene MAPK9
How it was run: as §1

KIT = KIT (Homo sapiens, UniProt P10721)
How it was run: as §1

KIT(V560G) = KIT(V560G) (Homo sapiens, UniProt P10721, V560G)
How it was run: as §1

LOK = target: T5, LOK (Homo sapiens, UniProt O94804)
T5 construct: gene STK10
T5 sequence (O94804 whole entry): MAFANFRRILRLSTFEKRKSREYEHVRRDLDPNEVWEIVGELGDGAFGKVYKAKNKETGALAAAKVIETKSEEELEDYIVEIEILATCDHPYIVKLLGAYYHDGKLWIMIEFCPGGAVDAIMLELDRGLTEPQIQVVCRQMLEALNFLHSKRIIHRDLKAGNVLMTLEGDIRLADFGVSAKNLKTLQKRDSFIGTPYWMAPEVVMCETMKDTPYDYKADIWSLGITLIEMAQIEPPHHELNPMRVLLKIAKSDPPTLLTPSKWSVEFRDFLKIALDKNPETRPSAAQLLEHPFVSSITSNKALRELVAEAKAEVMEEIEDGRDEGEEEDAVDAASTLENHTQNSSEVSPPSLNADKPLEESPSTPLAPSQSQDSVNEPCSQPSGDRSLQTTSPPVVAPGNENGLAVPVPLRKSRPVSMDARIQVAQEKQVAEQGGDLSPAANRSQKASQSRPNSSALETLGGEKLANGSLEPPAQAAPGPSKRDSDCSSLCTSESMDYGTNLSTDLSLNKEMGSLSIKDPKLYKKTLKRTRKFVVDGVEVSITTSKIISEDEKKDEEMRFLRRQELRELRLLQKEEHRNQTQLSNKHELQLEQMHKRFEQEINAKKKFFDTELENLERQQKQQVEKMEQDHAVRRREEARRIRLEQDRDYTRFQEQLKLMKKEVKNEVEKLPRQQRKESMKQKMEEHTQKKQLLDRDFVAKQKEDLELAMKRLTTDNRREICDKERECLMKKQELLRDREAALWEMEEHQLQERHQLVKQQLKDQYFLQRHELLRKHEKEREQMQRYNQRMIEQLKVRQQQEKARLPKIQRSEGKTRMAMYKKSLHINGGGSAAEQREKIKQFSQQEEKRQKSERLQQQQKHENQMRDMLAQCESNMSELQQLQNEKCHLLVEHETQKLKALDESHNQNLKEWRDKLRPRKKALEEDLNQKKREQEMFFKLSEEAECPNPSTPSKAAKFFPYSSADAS
How it was run: as §1

MET(D1228H) = MET(D1228H) (Homo sapiens, UniProt P08581, D1228H)
How it was run: as §1

MGC42105 = target: T6, MGC42105 (Homo sapiens, UniProt Q8IY84)
T6 construct: gene NIM1K
T6 sequence (Q8IY84 whole entry): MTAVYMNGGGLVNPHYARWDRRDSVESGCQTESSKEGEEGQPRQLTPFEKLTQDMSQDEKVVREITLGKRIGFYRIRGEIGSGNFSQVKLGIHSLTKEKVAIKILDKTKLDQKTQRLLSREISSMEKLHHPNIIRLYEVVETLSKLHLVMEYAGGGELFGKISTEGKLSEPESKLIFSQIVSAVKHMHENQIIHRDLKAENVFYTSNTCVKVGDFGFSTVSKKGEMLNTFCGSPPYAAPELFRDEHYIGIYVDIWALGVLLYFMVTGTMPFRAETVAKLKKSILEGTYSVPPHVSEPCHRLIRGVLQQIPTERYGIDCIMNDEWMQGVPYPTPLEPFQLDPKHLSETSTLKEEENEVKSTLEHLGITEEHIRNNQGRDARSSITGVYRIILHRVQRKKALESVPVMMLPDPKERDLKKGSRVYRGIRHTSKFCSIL
How it was run: as §1

MST1 = target: T7, MST1 (Homo sapiens, UniProt Q13043)
T7 construct: gene STK4
How it was run: as §1

NEK6 = NEK6 (Homo sapiens, UniProt Q9HC98)
How it was run: as §1

NEK9 = NEK9 (Homo sapiens, UniProt Q8TD19)
How it was run: as §1

PDK1 = target: T8, PDK1 (Homo sapiens, UniProt O15530)
T8 construct: gene PDPK1
How it was run: as §1

PIK3CA/PIK3R1 = PIK3CA/PIK3R1 (Homo sapiens, UniProt P42336)
How it was run: as §1

PKACγ = target: T9, PKACγ (Homo sapiens, UniProt P22612)
T9 construct: gene PRKACG
How it was run: as §1

PKR = target: T10, PKR (Homo sapiens, UniProt P19525)
T10 construct: gene EIF2AK2
T10 sequence (P19525 whole entry): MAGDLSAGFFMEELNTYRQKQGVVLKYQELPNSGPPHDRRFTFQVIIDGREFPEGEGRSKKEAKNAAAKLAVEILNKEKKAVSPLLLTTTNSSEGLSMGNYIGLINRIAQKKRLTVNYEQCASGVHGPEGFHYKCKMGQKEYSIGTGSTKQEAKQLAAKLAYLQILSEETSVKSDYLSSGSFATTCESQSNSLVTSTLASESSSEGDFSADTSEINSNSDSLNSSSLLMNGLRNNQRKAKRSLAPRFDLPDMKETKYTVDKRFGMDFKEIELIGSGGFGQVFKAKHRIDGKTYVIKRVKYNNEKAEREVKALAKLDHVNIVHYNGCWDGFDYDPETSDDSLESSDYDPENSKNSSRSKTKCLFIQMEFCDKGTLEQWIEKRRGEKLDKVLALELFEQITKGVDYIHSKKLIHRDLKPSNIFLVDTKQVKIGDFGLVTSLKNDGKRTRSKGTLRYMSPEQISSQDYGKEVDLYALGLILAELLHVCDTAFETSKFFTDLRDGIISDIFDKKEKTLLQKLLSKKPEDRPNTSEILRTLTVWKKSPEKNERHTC
How it was run: as §1

RET(G691S) = RET(G691S) (Homo sapiens, UniProt P07949, G691S)
RET(G691S), sequence (P07949 whole entry G691S): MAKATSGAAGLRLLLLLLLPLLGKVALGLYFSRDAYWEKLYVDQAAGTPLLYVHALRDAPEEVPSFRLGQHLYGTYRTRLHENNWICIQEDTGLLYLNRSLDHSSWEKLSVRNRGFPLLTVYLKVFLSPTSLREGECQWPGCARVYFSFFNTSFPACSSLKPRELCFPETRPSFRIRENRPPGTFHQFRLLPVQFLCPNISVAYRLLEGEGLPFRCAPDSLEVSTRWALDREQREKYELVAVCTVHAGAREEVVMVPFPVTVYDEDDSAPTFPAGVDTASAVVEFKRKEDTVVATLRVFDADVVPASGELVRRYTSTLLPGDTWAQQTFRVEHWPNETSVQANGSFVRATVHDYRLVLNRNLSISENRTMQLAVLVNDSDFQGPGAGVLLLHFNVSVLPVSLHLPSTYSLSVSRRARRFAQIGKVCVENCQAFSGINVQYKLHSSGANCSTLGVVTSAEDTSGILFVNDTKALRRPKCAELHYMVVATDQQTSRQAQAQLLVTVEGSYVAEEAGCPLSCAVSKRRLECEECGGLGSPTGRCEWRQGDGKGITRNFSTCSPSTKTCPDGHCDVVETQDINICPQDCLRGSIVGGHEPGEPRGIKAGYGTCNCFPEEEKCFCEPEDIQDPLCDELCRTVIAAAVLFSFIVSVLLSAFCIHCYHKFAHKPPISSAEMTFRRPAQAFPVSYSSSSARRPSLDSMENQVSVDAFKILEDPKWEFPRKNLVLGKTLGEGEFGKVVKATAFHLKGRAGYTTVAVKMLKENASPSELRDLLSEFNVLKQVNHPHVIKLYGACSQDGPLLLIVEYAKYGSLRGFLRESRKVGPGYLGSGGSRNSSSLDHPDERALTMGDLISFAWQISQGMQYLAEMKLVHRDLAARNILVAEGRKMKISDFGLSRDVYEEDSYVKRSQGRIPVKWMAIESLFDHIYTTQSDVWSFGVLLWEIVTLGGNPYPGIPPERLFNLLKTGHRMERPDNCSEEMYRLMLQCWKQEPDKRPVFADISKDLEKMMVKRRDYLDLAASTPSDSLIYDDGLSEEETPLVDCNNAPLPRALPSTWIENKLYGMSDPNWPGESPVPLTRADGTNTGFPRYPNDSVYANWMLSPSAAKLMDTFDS
How it was run: as §1

SGK2 = SGK2 (Homo sapiens, UniProt Q9HBY8)
How it was run: as §1

SIK = target: T11, SIK (Homo sapiens, UniProt P57059)
T11 construct: gene SIK1
How it was run: as §1

TBK1 = TBK1 (Homo sapiens, UniProt Q9UHD2)
How it was run: as §1

TSSK1 = target: T12, TSSK1 (Homo sapiens, UniProt Q9BXA7)
T12 construct: gene TSSK1B
How it was run: as §1

p38δ = target: T13, p38δ (Homo sapiens, UniProt O15264)
T13 construct: gene MAPK13
How it was run: as §1

c1cc(-c2ccc3[nH]ncc3c2)ccn1 [TG693, 5-(4-pyridinyl)-1H-indazole]
inhibition at 1 µM (ABL(E255K)): -4.2%
inhibition at 1 µM (ALK(C1156Y)): 0.1%
inhibition at 1 µM (CDK9/CycT1): 57.8%
inhibition at 1 µM (CLK3): 11.7%
inhibition at 1 µM (DDR2): -2.2%
inhibition at 1 µM (DYRK1B): 76.1%
inhibition at 1 µM (EPHA1): -2.8%
inhibition at 1 µM (FGFR4): 4.3%
inhibition at 1 µM (FGR): -5.9%
inhibition at 1 µM (FRK): -2.3%
inhibition at 1 µM (FYN(isoform b)): 0.6%
inhibition at 1 µM (HER2): -3.8%
inhibition at 1 µM (JNK2): -5.9%
inhibition at 1 µM (KIT): -0.9%
inhibition at 1 µM (KIT(V560G)): -2.6%
inhibition at 1 µM (LOK): 5.9%
inhibition at 1 µM (MET(D1228H)): 0.6%
inhibition at 1 µM (MGC42105): -22.2%
inhibition at 1 µM (MST1): -1.9%
inhibition at 1 µM (NEK6): -2.5%
inhibition at 1 µM (NEK9): -5.1%
inhibition at 1 µM (PDK1): -3.9%
inhibition at 1 µM (PIK3CA/PIK3R1): 36.8%
inhibition at 1 µM (PKACγ): 1.5%
inhibition at 1 µM (PKR): 1.2%
inhibition at 1 µM (RET(G691S)): 4.9%
inhibition at 1 µM (SGK2): -5.4%
inhibition at 1 µM (SIK): 3.2%
inhibition at 1 µM (TBK1): 5.8%
inhibition at 1 µM (TSSK1): 3%
inhibition at 1 µM (p38δ): -0.7%
